Laboratory results reported in patent US20240132498A1, “CRYSTALLINE FORMS OF 5-(3,4-DIFLUOROBENZYL)-8-((1R,4R)-4-METHYLCYCLOHEXYL)-6,9-DIOXO-2,5,8-TRIAZASPIRO[3.5]NONANE-2-CARBALDEHYDE” (Cytokinetics, Incorporated, priority 2022, published 2024).

Assay: Short-term static storage stability of the solid (XRPD, HPLC)
Format: physicochemical
Description: Purity analysis was performed on an Agilent HP1100/Infinity 111260 series system equipped with a diode array detector and using OpenLAB software. The full method details are provided below.
For short-term (8 days or fewer) stability experiments, solid material was placed into open vials at elevated storage conditions, unless otherwise stated. These conditions were achieved using saturated salt solutions at specific temperatures within sealed containers. Storage containers were pre-equilibrated prior to input of samples.

HPLC purity (Before Storage): 98.2% | XRPD (Before Storage): Form II | XRPD (Storage at 25° C./97% RH for 8 days): Unchanged by XRPD | XRPD (Storage at 40° C./75% RH for 8 days): Unchanged by XRPD
SMILES: C[C@H]1CC[C@H](N2CC(=O)N(Cc3ccc(F)c(F)c3)C3(CN(C=O)C3)C2=O)CC1 [Form II, 5-(3,4-difluorobenzyl)-8-((1r,4r)-4-methylcyclohexyl)-6,9-dioxo-2,5,8-triazaspiro[3.5]nonane-2-carbaldehyde]
